{"source": "PubChem BioAssay AID270", "about": "(DTP/NCI, 2004)", "test_system": "BDF1 mice, s.c. Lewis lung carcinoma, T/C %", "test": "NCI In Vivo Anticancer Drug Screen. Data for tumor model Lewis Lung Carcinoma (subcutaneous) in B6D2F1 (BDF1) mice", "how_it_was_run": "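The value reflects a ratio in which the treated cohort's survival time or tumour size is compared against mice receiving only vehicle.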", "key": {"[1]": {"details": "endpoint: median survival time, dose: 25.0 mg/kg/injection, schedule: Q01DX009 (ip), vehicle: Klucel (hydroxypropylcellulose) (HPC), higher = longer survival"}, "[2]": {"details": "endpoint: median survival time, dose: 100.0 mg/kg/injection, schedule: Q01DX009 (ip), vehicle: Klucel (hydroxypropylcellulose) (HPC), higher = longer survival"}, "[3]": {"details": "endpoint: median survival time, dose: 200.0 mg/kg/injection, schedule: Q01DX009 (ip), vehicle: Klucel (hydroxypropylcellulose) (HPC), higher = longer survival"}}, "note": "Where “and” joins values, the source holds several entries; their conditions need not be identical. Equal values may be shown once. Inconclusive results are not listed.", "data": [{"compound": "O=C1NC2C(NC(=O)N2Cl)N1Cl", "note": "(stereo not drawn)", "values": [{"measurement": "T/C", "setting": "endpoint: mean tumor weight, dose: 20.0 mg/kg/injection, schedule: Q01DX011 (ip), vehicle: saline, higher = larger tumour", "value": "97 % of control"}, {"measurement": "T/C", "setting": "endpoint: mean tumor weight, dose: 40.0 mg/kg/injection, schedule: Q01DX011 (ip), vehicle: saline, higher = larger tumour", "value": "114 % of control"}]}, {"compound": "CC/C(=C(/CC)c1ccc(O)cc1)c1ccc(O)cc1", "values": [{"measurement": "T/C", "setting": "endpoint: mean tumor weight, dose: 12.5 mg/kg/injection, schedule: Q01DX011 (sc), vehicle: steriod suspending solution, higher = larger tumour", "value": "38 % of control"}, {"measurement": "T/C", "setting": "endpoint: mean tumor weight, dose: 25.0 mg/kg/injection, schedule: Q01DX011 (sc), vehicle: steriod suspending solution, higher = larger tumour", "value": "28 % of control"}, {"measurement": "T/C", "setting": "endpoint: mean tumor weight, dose: 50.0 mg/kg/injection, schedule: Q01DX011 (sc), vehicle: steriod suspending solution, higher = larger tumour", "value": "17 % of control"}, {"measurement": "T/C", "setting": "endpoint: mean tumor weight, dose: 100.0 mg/kg/injection, schedule: Q01DX011 (sc), vehicle: steriod suspending solution, higher = larger tumour", "value": "21 % of control"}, {"measurement": "T/C", "setting": "[1]", "value": "120 % of control"}, {"measurement": "T/C", "setting": "endpoint: median survival time, dose: 50.0 mg/kg/injection, schedule: Q01DX009 (ip), vehicle: Klucel (hydroxypropylcellulose) (HPC), higher = longer survival", "value": "106 % of control"}, {"measurement": "T/C", "setting": "[2]", "value": "113 % of control"}, {"measurement": "T/C", "setting": "[3]", "value": "124 % of control"}]}, {"compound": "CN[C@H]1CCc2cc(OC)c(OC)c(OC)c2-c2ccc(OC)c(=O)cc21", "values": [{"measurement": "T/C", "setting": "endpoint: mean tumor weight, dose: 0.63 mg/kg/injection, schedule: Q01DX011 (ip), vehicle: saline, higher = larger tumour", "value": "59 % of control"}, {"measurement": "T/C", "setting": "endpoint: mean tumor weight, dose: 1.25 mg/kg/injection, schedule: Q01DX011 (ip), vehicle: saline, higher = larger tumour", "value": "85 % of control"}, {"measurement": "T/C", "setting": "endpoint: mean tumor weight, dose: 2.5 mg/kg/injection, schedule: Q01DX011 (ip), vehicle: saline, higher = larger tumour", "value": "61 % of control"}, {"measurement": "T/C", "setting": "endpoint: mean tumor weight, dose: 5.0 mg/kg/injection, schedule: Q01DX011 (ip), vehicle: saline, higher = larger tumour", "value": "58 % of control and 72 % of control"}, {"measurement": "T/C", "setting": "endpoint: mean tumor weight, dose: 7.0 mg/kg/injection, schedule: Q01DX011 (ip), vehicle: saline, higher = larger tumour", "value": "33 % of control"}]}, {"compound": "CC(=O)NNC(=O)c1ccccn1", "values": [{"measurement": "T/C", "setting": "[1]", "value": "112 % of control"}, {"measurement": "T/C", "setting": "[2]", "value": "102 % of control"}, {"measurement": "T/C", "setting": "[3]", "value": "115 % of control"}]}, {"compound": "C[C@]12CC[C@H](OC3OC(CO)C(O)C(O)C3O)C[C@H]1CC[C@@H]1[C@@H]2CC[C@]2(C)[C@@H](C3=CCOC3=O)CC[C@]12O", "note": "(stereo partly drawn)", "values": [{"measurement": "T/C", "setting": "endpoint: mean tumor weight, dose: 0.25 mg/kg/injection, schedule: Q01DX011 (ip), vehicle: carboxymethylcellulose (CMC), higher = larger tumour", "value": "33 % of control"}, {"measurement": "T/C", "setting": "endpoint: mean tumor weight, dose: 0.25 mg/kg/injection, schedule: Q01DX011 (ip), vehicle: saline, higher = larger tumour", "value": "41 % of control"}, {"measurement": "T/C", "setting": "endpoint: mean tumor weight, dose: 0.5 mg/kg/injection, schedule: Q01DX011 (ip), vehicle: carboxymethylcellulose (CMC), higher = larger tumour", "value": "47 % of control"}, {"measurement": "T/C", "setting": "endpoint: mean tumor weight, dose: 0.5 mg/kg/injection, schedule: Q01DX011 (ip), vehicle: saline, higher = larger tumour", "value": "16 % of control"}, {"measurement": "T/C", "setting": "endpoint: mean tumor weight, dose: 1.0 mg/kg/injection, schedule: Q01DX011 (ip), vehicle: carboxymethylcellulose (CMC), higher = larger tumour", "value": "14 % of control"}]}, {"compound": "CO[C@@H]1[C@@H](OC2OC(C)C(OC3CC(C)(O)C(OC(=O)CC(C)C)C(C)O3)C(N(C)C)C2O)[C@@H](CC=O)C[C@@H](C)C(=O)/C=C/C2O[C@H]2C[C@@H](C)OC(=O)C[C@H]1OC(C)=O", "note": "(stereo partly drawn)", "values": [{"measurement": "T/C", "setting": "endpoint: mean tumor weight, dose: 37.5 mg/kg/injection, schedule: Q01DX011 (ip), vehicle: other, higher = larger tumour", "value": "98 % of control"}, {"measurement": "T/C", "setting": "endpoint: mean tumor weight, dose: 37.5 mg/kg/injection, schedule: Q01DX011 (ip), vehicle: saline, higher = larger tumour", "value": "83 % of control"}, {"measurement": "T/C", "setting": "endpoint: mean tumor weight, dose: 75.0 mg/kg/injection, schedule: Q01DX011 (ip), vehicle: other, higher = larger tumour", "value": "76 % of control"}, {"measurement": "T/C", "setting": "endpoint: mean tumor weight, dose: 150.0 mg/kg/injection, schedule: Q01DX011 (ip), vehicle: other, higher = larger tumour", "value": "47 % of control"}, {"measurement": "T/C", "setting": "endpoint: mean tumor weight, dose: 150.0 mg/kg/injection, schedule: Q01DX011 (ip), vehicle: saline, higher = larger tumour", "value": "63 % of control and 81 % of control"}, {"measurement": "T/C", "setting": "endpoint: mean tumor weight, dose: 300.0 mg/kg/injection, schedule: Q01DX011 (ip), vehicle: other, higher = larger tumour", "value": "15 % of control"}, {"measurement": "T/C", "setting": "endpoint: mean tumor weight, dose: 300.0 mg/kg/injection, schedule: Q01DX011 (ip), vehicle: saline, higher = larger tumour", "value": "44 % of control and 48 % of control"}]}, {"compound": "CC(=O)NC(Cc1ccc(N(CCCl)CCCl)cc1)C(=O)O", "note": "(stereo not drawn)", "values": [{"measurement": "T/C", "setting": "endpoint: median survival time, dose: 3.13 mg/kg/injection, schedule: Q01DX009 (ip), vehicle: other, higher = longer survival", "value": "104 % of control"}, {"measurement": "T/C", "setting": "endpoint: median survival time, dose: 6.25 mg/kg/injection, schedule: Q01DX009 (ip), vehicle: other, higher = longer survival", "value": "120 % of control"}, {"measurement": "T/C", "setting": "endpoint: median survival time, dose: 25.0 mg/kg/injection, schedule: Q01DX009 (ip), vehicle: other, higher = longer survival", "value": "114 % of control"}]}, {"compound": "CC(CCc1cccc2ccccc12)(C(=O)O)C(=O)O", "values": [{"measurement": "T/C", "setting": "endpoint: mean tumor weight, dose: 50.0 mg/kg/injection, schedule: Q01DX011 (ip), vehicle: acid diluted with saline, higher = larger tumour", "value": "72 % of control"}, {"measurement": "T/C", "setting": "endpoint: mean tumor weight, dose: 63.0 mg/kg/injection, schedule: Q01DX011 (ip), vehicle: carboxymethylcellulose (CMC), higher = larger tumour", "value": "101 % of control"}, {"measurement": "T/C", "setting": "endpoint: mean tumor weight, dose: 100.0 mg/kg/injection, schedule: Q01DX011 (ip), vehicle: acid diluted with saline, higher = larger tumour", "value": "85 % of control"}, {"measurement": "T/C", "setting": "endpoint: mean tumor weight, dose: 200.0 mg/kg/injection, schedule: Q01DX011 (ip), vehicle: acid diluted with saline, higher = larger tumour", "value": "91 % of control"}, {"measurement": "T/C", "setting": "endpoint: mean tumor weight, dose: 400.0 mg/kg/injection, schedule: Q01DX011 (ip), vehicle: acid diluted with saline, higher = larger tumour", "value": "59 % of control"}]}]}
